Experimental data published in patent US20180077929A1, “METHODS AND SYSTEMS FOR TREATING MEDICAL DEVICES AND FLUIDS” (priority 2016, published 2018).
Where “and” joins values, the source holds several entries; their conditions need not be identical. Equal values may be shown once.

Columns and labels:
[1] = Suture testing in aqueous suspension of CaSt; type: biochemical
Method: Treatment of sutures in aqueous suspensions of CaSt was performed as follows: Suture used was VICRYL® (Polyglactin 910) suture made of a copolymer made from 90% glycolide and 10% L-lactide, Size 1, 27 inch pieces. Endotoxin sources used were sitting (or stagnant) Rain Water (SRW) and diluted with LRW to obtain a concentration of (3980 EU/mL). Endosafe LAL Reagent Water (LRW) was used, manufactured by Charles River Laboratories, Charleston S.C.
Eight strands of suture were placed in tubing with LPS (endotoxin) solution for 10 minutes at a time. The sutures were dried for 20 minutes and then placed in round bottom tubes. Suspensions of 5% by weight CaSt in LAL Reagent Water were prepared. (0.5 g CaSt in 10 mL LRW). One suture was placed in each tube and vortexed in this solution for approximately 10 seconds. The sutures were removed and allowed to dry for 20 minutes and then placed in round bottom tubes. This was done for 3 sutures. Three pieces of suture, serving as the control, were not submerged in any solutions and placed in test tubes. 3 mL of LAL reagent water was added to each test tube, vortexed vigorously for 1 minute, and then placed in a hot water bath at 37° C. for 1 hour. They were then removed, vortexed vigorously for 1 minute, diluted, and tested on the MCS system. The water that was mixed with the calcium stearate was also tested. Two sutures were submerged in LRW that was mixed with calcium stearate. The LRW was separated from the calcium stearate before two sutures were submerged. These were also tested for endotoxin on the MCS.

[2] = Effect of storage (dwell time) on efficacy of pre-mixed CaSt suspensions; type: biochemical; conditions: 15 minutes
Method: Efficacy of pre-mixed CaSt suspensions (sonicated and vortexed) was tested, comparing efficacy of immediately prepared suspensions with suspensions having shelf life or dwell time of 90 min, 5 days, and 1 month prior to contact with endotoxin containing solutions.
10 mL SRW was then introduced to the sonicated CaSt mixture. It was then vortexed for 5 seconds to fully incorporate the sonicated CaSt. The mixture was then tested after 15 minutes of interaction to measure the percent decrease of endotoxin.
10 mL SRW was then introduced to the vortexed CaSt mixture. It was then vortexed for 5 seconds to fully incorporate the sonicated CaSt. The mixture was then tested after 15 minutes of interaction to measure the percent decrease of endotoxin.
These mixtures were then tested on the Charles River MCS at a dilution of 1:2000 after 15 minutes of interaction.
Test samples were prepared as described above, sonicated and vortexed, but were subjected to shelf life or dwell time of 90 min, 5 days, and 1 month prior to contact with endotoxin containing solution (SRW). After dwell time exposure, similarly to the immediate mixing test above, 10 mL SRW was then introduced to the sonicated or vortexed CaSt mixture. It was then vortexed for 5 seconds to fully incorporate the sonicated CaSt. The mixture was then tested after 15 minutes of interaction to measure the percent decrease of endotoxin. These mixtures were then tested on the Charles River MCS at a dilution of 1:2000 after 15 minutes of interaction.
*The 1 month shelf life sample was only tested at 0.04 g CaSt and measured the percent removal after 15 minutes of interaction as well as 30 minutes after interaction.

[3] = Animal study: calcium stearate alone dosed intraperitoneally (NC-2); type: in vivo; conditions: NC-2: 0.2 g Calcium Stearate in 5.0 mL normal saline, intraperitoneal, female rats, observed 4 days
Method: An animal study was conducted with 30 female rats with weights ranging from 250-300 g and acclimated for 5 days. All rats were dosed with intraperitoneal injections using 18 gauge needles. The rats were broken into 6 groups. A negative control (NC-1) dosed 5 rats with 5 mL of normal saline solution. […] A positive control (PC-1) dosed 5 rats with 2.5 million EU in a 5 mL saline solution. A second positive control (PC-2) was conducted dosing 5 rats with 5 million endotoxin units in a 5 mL normal saline solution. Two experimental test groups were conducted.
The negative control samples also had no toxicity.

[4] = 0.02 g CaSt, Sonicated, 5 Day dwell time
[5] = 0.02 g CaSt, Sonicated, 90 min dwell time
[6] = 0.02 g CaSt, Sonicated, Immediate Mixing
[7] = 0.02 g CaSt, Vortexed, 5 Day dwell time
[8] = 0.02 g CaSt, Vortexed, 90 min dwell time
[9] = 0.04 g CaSt, Sonicated, 1 Month dwell time
[10] = 0.04 g CaSt, Sonicated, 5 Days dwell time
[11] = 0.04 g CaSt, Sonicated, 90 min dwell time
[12] = 0.04 g CaSt, Sonicated, Immediate Mixing
[13] = 0.04 g CaSt, Vortexed, 5 Days dwell time
[14] = 0.04 g CaSt, Vortexed, 90 min dwell time
[15] = 0.04 g CaSt, Vortexed, Immediate Mixing

Calcium Stearate
Endotoxin Detected ([1]; Water with 5% Calcium Stearate, solution tested after suture removal): <1.0 EU | Average Change in Endotoxin Level ([1]; sutures 4-6 in LAL Water w/5% Calcium Stearate vs. sutures not submerged): −96.1% | Average Endotoxin Detected ([1]; sutures 4-6 in LAL Water w/5% Calcium Stearate, untreated average 84 EU): 3.27 EU | EU After ([2]; 0.02 g CaSt in 10 mL LRW, Sonicated, Immediate Mixing with 10 mL SRW, 36,100 EU before): 8,960 EU and 10,240 EU | Average Percent Change [2, 4]: 76% | Percent Endotoxin Removed [2, 4]: 76% | EU After ([2]; 0.02 g CaSt, Sonicated, 5 Day dwell time, 37,800 EU before): 9,200 EU | Average Percent Change [2, 5]: 61% | Percent Endotoxin Removed [2, 5]: 58% and 64% | EU After ([2]; 0.02 g CaSt, Sonicated, 90 min dwell time, 36,100 EU before): 15,120 EU and 12,960 EU | Average Percent Change [2, 6]: 74% | Percent Endotoxin Removed [2, 6]: 75% and 72% | Average Percent Change [2, 7]: 64% | Percent Endotoxin Removed [2, 7]: 60% and 68% | EU After ([2]; 0.02 g CaSt, Vortexed, 5 Day dwell time, 37,800 EU before): 15,120 EU and 12,160 EU | Average Percent Change [2, 8]: 43% | Percent Endotoxin Removed [2, 8]: 38% and 47% | EU After ([2]; 0.02 g CaSt, Vortexed, 90 min dwell time, 36,100 EU before): 22,400 EU and 19,280 EU | Average Percent Change ([2]; 0.02 g CaSt, Vortexed, Immediate Mixing): 32% | EU After ([2]; 0.02 g CaSt, Vortexed, Immediate Mixing, 36,100 EU before): 29,200 EU and 20,480 EU | EU After ([2]; 0.04 g CaSt in 10 mL LRW, Sonicated, Immediate Mixing with 10 mL SRW, 36,100 EU before): 5,320 EU and 5,800 EU | Average Percent Change [2, 9]: 50% | Percent Endotoxin Removed [2, 9]: 49.2% and 50.6% | Average Percent Change [2, 10]: 85% | Percent Endotoxin Removed [2, 10]: 87% and 83% | Average Percent Change [2, 11]: 81% | Percent Endotoxin Removed [2, 11]: 83% and 78% | Average Percent Change [2, 12]: 85% | Percent Endotoxin Removed [2, 12]: 85% and 84% | EU After ([2]; 0.04 g CaSt, Sonicated, Mixing after 1 Month dwell time, 14,650 EU before): 7,440 EU and 7,240 EU | EU After ([2]; 0.04 g CaSt, Sonicated, Mixing after 5 Days dwell time, 37,800 EU before): 5,040 EU and 6,560 EU | EU After ([2]; 0.04 g CaSt, Sonicated, Mixing after 90 min dwell time, 36,100 EU before): 6,168 EU and 8,000 EU | Average Percent Change [2, 13]: 75% | Percent Endotoxin Removed [2, 13]: 76% and 74% | Average Percent Change [2, 14]: 54% | Percent Endotoxin Removed [2, 14]: 53% and 54% | Average Percent Change [2, 15]: 44% | Percent Endotoxin Removed [2, 15]: 45% and 43% | EU After ([2]; 0.04 g CaSt, Vortexed, Immediate Mixing, 36,100 EU before): 19,840 EU and 20,480 EU | EU After ([2]; 0.04 g CaSt, Vortexed, Mixing after 5 Days dwell time, 37,800 EU before): 9,080 EU and 9,760 EU | EU After ([2]; 0.04 g CaSt, Vortexed, Mixing after 90 min dwell time, 36,100 EU before): 17,120 EU and 16,460 EU | Results (toxicity observed) [3]: No Toxicity
